Measurements taken from ChEMBL document CHEMBL1138752, “2-Pyrazolyl-N(6)-substituted adenosine derivatives as high affinity and selective adenosine A(3) receptor agonists” (J Med Chem, 2004).

Assays:
Adenosine receptor A3 = target: T1, Adenosine receptor A3 (Homo sapiens, UniProt P0DMS8); assay: biochemical
T1 sequence (P0DMS8 whole entry): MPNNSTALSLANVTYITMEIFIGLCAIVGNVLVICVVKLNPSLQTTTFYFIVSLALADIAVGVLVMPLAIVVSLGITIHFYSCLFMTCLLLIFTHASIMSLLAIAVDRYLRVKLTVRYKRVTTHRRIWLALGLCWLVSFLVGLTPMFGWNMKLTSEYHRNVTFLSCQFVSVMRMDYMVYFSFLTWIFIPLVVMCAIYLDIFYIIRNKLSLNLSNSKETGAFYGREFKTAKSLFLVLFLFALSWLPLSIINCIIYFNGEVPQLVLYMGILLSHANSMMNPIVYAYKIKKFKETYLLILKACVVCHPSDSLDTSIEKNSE
Description: Displacement of [125I]-AB MECA from recombinant human adenosine A3 receptor expressed in HEK cells

Adenosine receptor A2a = Adenosine receptor A2a (Homo sapiens, UniProt P29274); assay: biochemical
Chain of Adenosine receptor A2a (P29274 whole entry): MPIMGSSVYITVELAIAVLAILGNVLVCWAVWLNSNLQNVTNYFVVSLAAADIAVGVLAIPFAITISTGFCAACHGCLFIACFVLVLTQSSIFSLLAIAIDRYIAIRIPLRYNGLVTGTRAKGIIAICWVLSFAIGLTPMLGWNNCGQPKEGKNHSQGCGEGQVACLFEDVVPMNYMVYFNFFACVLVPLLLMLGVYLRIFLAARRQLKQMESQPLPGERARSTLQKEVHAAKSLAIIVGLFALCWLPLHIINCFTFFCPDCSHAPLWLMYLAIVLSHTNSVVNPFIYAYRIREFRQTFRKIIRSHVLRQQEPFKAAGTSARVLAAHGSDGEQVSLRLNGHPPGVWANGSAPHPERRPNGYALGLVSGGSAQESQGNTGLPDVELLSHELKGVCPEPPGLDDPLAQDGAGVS
Description: Displacement of [3H]CGS-21680 from recombinant human adenosine A2a receptor expressed in HEK cells

Adenosine receptor A1 = target: T2, Adenosine receptor A1 (Homo sapiens, UniProt P30542); assay: biochemical
T2 sequence (P30542 whole entry): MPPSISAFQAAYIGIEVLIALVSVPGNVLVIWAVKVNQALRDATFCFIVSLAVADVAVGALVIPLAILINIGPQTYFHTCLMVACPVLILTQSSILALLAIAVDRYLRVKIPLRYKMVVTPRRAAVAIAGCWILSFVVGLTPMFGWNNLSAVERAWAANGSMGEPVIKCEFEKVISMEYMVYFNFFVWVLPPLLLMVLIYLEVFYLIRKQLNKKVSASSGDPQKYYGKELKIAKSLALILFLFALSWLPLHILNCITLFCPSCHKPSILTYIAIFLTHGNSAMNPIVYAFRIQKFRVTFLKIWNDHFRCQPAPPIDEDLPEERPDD
Description: Displacement of [3H]CCPA from recombinant human adenosine A1 receptor expressed in CHO cells

[1] = target: Adenosine receptors; A1 & A3 (Homo sapiens) (UniProt P30542+P0DMS8); assay: Ratio of binding to adenosine A1 and adenosine A3 receptor; format: protein assay
[2] = target: Adenosine receptors; A2a & A3 (Homo sapiens) (UniProt P0DMS8+P29274); assay: Ratio of binding to adenosine A2a and adenosine A3 receptor; format: protein assay
Chain of Adenosine receptors; A2a & A3 (Homo sapiens) (P29274 whole entry, looked up, one chain of several): as the sequence (P29274 whole entry) above

| SMILES | Ki (Adenosine receptor A3) | Ki (Adenosine receptor A2a) | Ki (Adenosine receptor A1) | Selectivity [1] | Selectivity [2] |
| --- | --- | --- | --- | --- | --- |
| CNc1nc(-c2cnn(Cc3ccccc3)c2)nc2c1ncn2C1O[C@H](CO)[C@@H](O)[C@H]1O (stereo partly specified) | 0.097 µM | > 5 µM | 1.3 µM | 13 | > 50 |
| Nc1nc(-c2cnn(Cc3ccccc3)c2)nc2c1ncn2[C@@H]1O[C@H](CO)[C@@H](O)[C@H]1O | > 10 µM | 0.0015 µM |  |  |  |
| OC[C@H]1OC(n2cnc3c(NCc4cccc(I)c4)nc(-n4cc(-c5nccc6ccccc56)cn4)nc32)[C@H](O)[C@@H]1O (stereo partly specified) | 0.109 µM | 0.052 µM | 0.77 µM | 7 | < 1 |
| CCNc1nc(-n2cc(-c3ccc(OC)cc3)cn2)nc2c1ncn2[C@@H]1O[C@H](CO)[C@@H](O)[C@H]1O | 0.041 µM | 4 µM |  | 90 | 100 |
| COc1ccc(-c2cnn(-c3nc(N)c4ncn([C@@H]5O[C@H](CO)[C@@H](O)[C@H]5O)c4n3)c2)cc1 | > 6 µM | 0.19 µM |  |  |  |
| CNC(=O)c1cnn(-c2nc(N)c3ncn([C@@H]4O[C@H](CO)[C@@H](O)[C@H]4O)c3n2)c1 [REGADENOSON ANHYDROUS] | > 10 µM |  |  |  |  |
| CNc1nc(-n2cc(-c3ccc(Cl)cc3)cn2)nc2c1ncn2C1O[C@H](CO)[C@@H](O)[C@H]1O (stereo partly specified) | 0.01 µM | > 5 µM | > 6 µM | > 600 | > 500 |
| CCCNc1nc(-c2cnn(Cc3ccccc3)c2)nc2c1ncn2C1O[C@H](CO)[C@@H](O)[C@H]1O (stereo partly specified) | 0.148 µM |  |  |  |  |
| CNC(=O)c1cnn(-c2nc(NC)c3ncn([C@@H]4O[C@H](CO)[C@@H](O)[C@H]4O)c3n2)c1 | 0.073 µM | > 6 µM |  | > 80 | > 80 |
| CNc1nc(-n2cc(-c3nc4ccccc4o3)cn2)nc2c1ncn2C1O[C@H](CO)[C@@H](O)[C@H]1O (stereo partly specified) | 0.002 µM | 2.5 µM | 2.6 µM | 1300 | 1200 |
| CCCNc1nc(-n2cc(-c3ccc(OC)cc3)cn2)nc2c1ncn2C1O[C@H](CO)[C@@H](O)[C@H]1O (stereo partly specified) | 0.065 µM | 3.3 µM | 3 µM | 45 | 50 |
| OC[C@H]1OC(n2cnc3c(NCc4cccc(I)c4)nc(-n4cc(-c5ccccn5)cn4)nc32)[C@H](O)[C@@H]1O (stereo partly specified) | 0.17 µM | > 3.9 µM | 4.2 µM | 24 | > 22 |
| CNc1nc(-n2cc(-c3cccnc3)cn2)nc2c1ncn2C1O[C@H](CO)[C@@H](O)[C@H]1O (stereo partly specified) | 0.002 µM | 4.1 µM | 1.8 µM | 900 | 2000 |
| CNc1nc(-n2cc(-c3ccc(OC)cc3)cn2)nc2c1ncn2[C@@H]1O[C@H](CO)[C@@H](O)[C@H]1O | 0.015 µM | > 5 µM |  | > 200 | > 300 |
| CNc1nc(-n2cc(-c3ccccn3)cn2)nc2c1ncn2[C@@H]1O[C@H](CO)[C@@H](O)[C@H]1O |  | > 5 µM |  |  |  |
| CNc1nc(-n2cc(C(=O)NCc3ccc(Cl)cc3)cn2)nc2c1ncn2C1O[C@H](CO)[C@@H](O)[C@H]1O (stereo partly specified) | 0.157 µM | 4 µM | 2 µM |  | 25 |
| CCCNC(=O)c1cnn(-c2nc(NC)c3ncn(C4O[C@H](CO)[C@@H](O)[C@H]4O)c3n2)c1 (stereo partly specified) | 0.019 µM | > 4 µM | > 4 µM | > 200 | > 200 |
| CCNc1nc(-n2cc(-c3ccccn3)cn2)nc2c1ncn2[C@@H]1O[C@H](CO)[C@@H](O)[C@H]1O | 0.107 µM | 1.8 µM |  |  |  |
| COc1ccc(-c2cnn(-c3nc(NCc4cccc(I)c4)c4ncn(C5O[C@H](CO)[C@@H](O)[C@H]5O)c4n3)c2)cc1 (stereo partly specified) | 0.32 µM | 4 µM | 4.5 µM | 14 | 10 |
| CNc1nc(-n2cc(-c3ccc4ccccc4n3)cn2)nc2c1ncn2C1O[C@H](CO)[C@@H](O)[C@H]1O (stereo partly specified) | 0.003 µM | > 5 µM | > 5 µM | > 1600 | > 1600 |
| CNc1nc(-n2cc(-c3ccncc3)cn2)nc2c1ncn2C1O[C@H](CO)[C@@H](O)[C@H]1O (stereo partly specified) | 0.006 µM | > 5 µM | 3.8 µM | 600 | > 800 |
| CCNC(=O)c1cnn(-c2nc(NC)c3ncn(C4O[C@H](CO)[C@@H](O)[C@H]4O)c3n2)c1 (stereo partly specified) | 0.049 µM |  |  |  |  |
